Experimental data taken from patent publication US5753631A, “Intercellular adhesion mediators” (Cytel Corporation, priority 1995, dated 1998).

Key:
[1] = molecular target: T1, E-Selectin (Homo sapiens, UniProt P16581); experiment: Glycolipid liposome inhibition of HL-60 cell adhesion to IL-1β activated endothelial cells; format: cell-based; conditions: liposomes; for inhibition of adhesion of HL-60 cells to activated endothelial cells: 4° C. (FIG. 5); for reduction of HL-60 cell adhesion to activated endothelial cells: 37° C.
T1 construct: adhesion of HL-60 cells
T1 sequence (P16581 22-610): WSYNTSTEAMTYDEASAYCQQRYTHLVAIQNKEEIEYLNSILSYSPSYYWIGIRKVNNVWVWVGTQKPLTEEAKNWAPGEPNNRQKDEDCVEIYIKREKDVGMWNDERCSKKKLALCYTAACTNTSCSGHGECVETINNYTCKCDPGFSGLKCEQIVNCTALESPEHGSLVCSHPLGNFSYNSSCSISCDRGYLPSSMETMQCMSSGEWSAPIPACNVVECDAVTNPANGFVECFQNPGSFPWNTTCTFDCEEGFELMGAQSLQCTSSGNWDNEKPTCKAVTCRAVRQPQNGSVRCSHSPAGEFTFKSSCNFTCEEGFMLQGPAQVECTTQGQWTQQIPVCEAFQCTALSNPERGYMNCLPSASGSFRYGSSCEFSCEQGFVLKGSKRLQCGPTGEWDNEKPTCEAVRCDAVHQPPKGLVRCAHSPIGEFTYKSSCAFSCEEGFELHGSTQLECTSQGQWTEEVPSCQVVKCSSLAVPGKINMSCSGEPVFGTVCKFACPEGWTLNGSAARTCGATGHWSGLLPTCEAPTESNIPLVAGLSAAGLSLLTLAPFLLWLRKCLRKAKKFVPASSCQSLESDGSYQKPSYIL
From the text: This Example describes the preparation of liposomes which contain various biosynthetically produced glycosphingolipids on which the terminal carbohydrate units are either SLe^x, Le^x, or similar but not identical compounds. The ability of the liposomes which contain SLe^x or SLe^x mimetics to block the binding of SLe^x -expressing HL-60 cells and LEC11 cells to endothelial cells that have been stimulated to express E-Selectin by treatment with IL-1β is shown.
Materials: The glycosphingolipids used in this experiment are shown in Table I; they were obtained from the Biomembrane Institute, Seattle, Wash., and were either purified or biosynthetically produced and characterized by NMR and mass spectrometry, as generally described in Hakomori, S. I., et al., J. Biol. Chem., 259:4672 (1984), and Fukushi Y., et al., J. Biol. Chem. 259:10511 (1984), incorporated by reference herein. […] Nonsialylated diLex was similarly synthesized using nLc6 as substrate and the cell line NCI H-69. See Holmes et al., J. Biol. Chem. 260:7619 (1985), incorporated by reference herein. SPG and SH were purified from bovine red blood cells, and nLc6 was produced by chemical removal of the terminal sialosyl residue from SH.
Liposomes containing the glycosphingolipids were formed as follows: 100 μg of glycolipid was added to 300 μg phosphatidylcholine (Sigma, egg yolk) and 500 μg cholesterol (Sigma) in chloroform-methanol (2:1) and the whole solution evaporated to dryness by N2 in 15 ml screwcap tubes.
Passage 3 HUVEC, which had been grown to confluence on a gelatin coated 48 well assay plate (Costar) were used as the source of endothelial cells. The plates were prepared as previously described. Two sets of triplicate wells were left unstimulated as controls. Fourteen sets of triplicates were stimulated with IL-1β at 30 μg/ml in a 0.5 ml volume of EGM-UV. Cells were stimulated for exactly 4 hrs. HL-60 cells and LEC11 cells were cultured as described above.
1. One 48 well Costar cluster dish containing HUVEC grown to confluence on gelatin was removed from the incubator and the medium in each well was removed with a pasteur pipette and replaced either with 0.5 ml fresh EGM-UV medium or with the same medium containing 30 μg/ml IL-1β,and the plate then returned to the incubator for 4 hrs.
2. HL-60 cells and LEC11 cells were harvested and washed in CRPMI. A viable cell count was made using trypan blue. 6×10^6 cells of each cell type were radiolabeled as follows: 3×10^6 cells of each type were placed in each of two 10 ml test tubes and 300 μl of ^51 Cr (450 μCi) (New England Nuclear) was added to each tube. The tubes were allowed to incubate 1 hr. at 37° C. with gentle agitation.
3. Radiolabeled HL-60 and LEC11 cells were washed 3× in CRPMI and pooled into one tube. […]

[2] = molecular target: T2, P-Selectin (Homo sapiens, UniProt P16109); experiment: Glycolipid liposome inhibition of HL-60 cell adhesion to activated platelets; format: cell-based; conditions: liposomes, FIG. 7
T2 construct: endogenous in cells
T2 sequence (P16109 42-830): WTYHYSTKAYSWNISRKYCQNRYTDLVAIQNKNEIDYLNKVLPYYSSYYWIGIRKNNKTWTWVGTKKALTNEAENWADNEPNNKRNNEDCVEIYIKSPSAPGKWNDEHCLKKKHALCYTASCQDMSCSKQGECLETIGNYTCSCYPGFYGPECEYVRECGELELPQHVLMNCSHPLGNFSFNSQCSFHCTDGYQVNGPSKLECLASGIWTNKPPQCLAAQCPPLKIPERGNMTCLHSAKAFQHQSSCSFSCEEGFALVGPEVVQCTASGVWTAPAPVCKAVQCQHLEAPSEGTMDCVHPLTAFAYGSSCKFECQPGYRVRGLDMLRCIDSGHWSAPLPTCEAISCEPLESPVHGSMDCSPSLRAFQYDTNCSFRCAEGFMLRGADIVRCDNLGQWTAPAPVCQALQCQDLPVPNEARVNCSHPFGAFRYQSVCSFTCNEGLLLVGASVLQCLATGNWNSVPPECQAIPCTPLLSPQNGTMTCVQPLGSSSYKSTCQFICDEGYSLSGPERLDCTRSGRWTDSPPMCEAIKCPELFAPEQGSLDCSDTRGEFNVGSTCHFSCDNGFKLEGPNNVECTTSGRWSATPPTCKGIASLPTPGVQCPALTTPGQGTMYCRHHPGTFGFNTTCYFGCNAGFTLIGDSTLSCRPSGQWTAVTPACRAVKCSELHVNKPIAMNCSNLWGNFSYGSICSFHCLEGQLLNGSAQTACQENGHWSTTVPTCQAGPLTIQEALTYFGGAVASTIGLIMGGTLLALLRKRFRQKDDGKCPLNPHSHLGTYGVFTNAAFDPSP
Description: The assays generally followed the protocol described in Larsen et al., Cell 63: 467-474 (1990), which is incorporated herein by reference.
Glycosphingolipids and liposomes were prepared as described in Example IV. The platelets were prepared as described in Example V, except that blocking of Fc receptors was not performed. HL60 cells were prepared as described above.
1. 20 μl of activated platelet preparation was placed in each of 28 1.5 ml microfuge tubes (14 duplicate samples).
2. 20 μl of the diluted liposomes at […], 5 μg or 2 μg, or 20 μl of the control buffers, were added to the appropriate tube of each duplicate.
3. The platelets were incubated with the liposome preparations for 20 min. at room temp.
4. Neutrophils or HL-60 cells at 2×10^6 cells/ml were each added to one set of liposome-treated platelets. 20 μl of cell suspension were added to each tube.
5. The tubes were mixed and allowed to stand at room temperature for 20 min. Then they were applied to a hemacytometer and the cells were scored as positive (2 or more platelets attached/cell) or negative (less than 2 platelets attached/cell).

[3] = system: CVF-induced acute lung injury; experiment: Cobra venom factor (CVF)-induced acute lung injury in the rat; format: in vivo; conditions: 200 μg prior to CVF (FIG. 16: 0.6 mg/Kg)
Description: Groups of rats were pretreated with either vehicle, SLN-OH (0.6 mg/Kg), or with SLX-OH (0.6 mg/Kg) 5 minutes prior to administration of either CVF or PBS. Each bar represents the mean of 6 animals and vertical lines represent the standard error of the mean.
Groups of rats were pretreated with either vehicle or Z at the indicated doses 5 minutes prior to administration of CVF or PBS. Each point represents the mean of 6 animals and vertical lines represent the standard error of the mean.
The intravenous injection of CVF produces intravascular complement activation which results in lung injury, defined as an increase in neutrophil accumulation within the lung, an increase in pulmonary vascular permeability and in lung hemorrhage. It is likely that intravascular complement activation results in the generation of a wide range of inflammatory mediators. Of particular relevance to the studies described here is generation of the split fifth complement component, C5a, which can stimulate the release of histamine from circulating basophils and tissue mast cells. […] The expression of selectins, including P-selectin, is a necessary first step in the process of leukocyte adherence to vascular endothelium.
Animals were dosed with different oligosaccharide preparations or phosphate buffered saline (PBS) five minutes before administration of cobra venom factor (20 units/Kg, i.v.). Included in this material was an aliquot of ^125 I-bovine serum albumin (0.5 μCi) and ^51 Cr labelled autologous red blood cells (0.5 μCi) for measuring plasma extravasation and hemorrhage respectively. Thirty minutes after administration of the cobra venom factor the animals were anesthetized with ketamine hydrochloride (10 mg/Kg) and exsanguinated via the posterior vena cava. The lung vasculature was then perfused through the right cardiac ventricle with 10 mL of PBS. The lungs were removed and the amount of radioactivity remaining within the tissue assessed with a gamma scintillation counter. Increased pulmonary vascular permeability was measured as the ratio of ^125 I in lung tissue compared with the amount present in 1 mL of venous blood obtained at the time of death. Lung hemorrhage was measured as the ratio of ^51 Cr in lung tissue compared with the amount present in 1 mL of venous blood obtained at the time of death. Neutrophil accumulation in lungs was determined by measuring the myeloperoxidase activity of lungs homogenized in PBS. Myeloperoxidase activity in lung supernatants was assayed by measuring the change in absorbance at 460 nm resulting from decomposition of H2 O2 in the presence of o-dianisidine

[4] = system: IgG immune complex-induced acute lung injury; experiment: IgG immune complex-induced acute lung injury in the rat; format: in vivo, rat (male Long-Evans); conditions: conclusion in words
[5] = system: IgA immune complex induced lung injury; experiment: IgA immune complex-induced acute lung injury in the rat; format: in vivo, rat (male Long-Evans)
Description: Groups of rats were dosed with either vehicle, SLN-OH (100 μpg), or with SLX-OH (100 μg) […] post induction of inflammation. Each bar represents the mean of 6 animals and vertical lines represent the standard error of the mean.
Adult male (300 g) specific pathogen-free Long-Evans rats purchased from Charles River Labs (Portage, Mich.) were employed in the studies. For the induction of IgG immune complex pulmonary inflammation rabbit polyclonal IgG rich in antibody to bovine serum albumin (antiBSA) was purchased from Organon Teknika (Westchester, PA). Intraperitoneal ketamine (10 mg/Kg) was administered for anesthesia. 2.5 mg of anti-BSA in a volume of 300 μl was instilled intratracheally via a small intratracheal catheter during inspiration after surgical exposure of the trachea. Intravenous injection of 10 mg BSA was injected intravenously to generate immune complex formation. Trace amounts of ^125 I-BSA and ^51 Cr-RBC were administered with the BSA as markers for plasma and RBC extravasation respectively. Rats were sacrificed 4 h later and lung injury was assessed by the ratio of radiolabelled albumin in the lungs relative to the circulation (permeability), the ratio of RBC in the lungs relative to the circulation (hemorrhage) and the amount of myeloperoxidase activity in a lung homogenate (neutrophil accumulation). For induction of IgA immune complex induced lung injury 1.2 mg of a murine myeloma IgA protein specific for dinitrophenol (DNP) was instilled intratracheally and 3.3 mg DNP-bovine serum albumin injected intravenously. Lung injury was assessed in the same manner described for IgG-induced lung injury.
SLX-OH, Z, the non-fucosylated control oligosaccharide SLN, or an equivalent volume of PBS were injected intravenously in three equally divided doses at 2, 2.5, and 3 h following deposition of immune complexes. This schedule for injections was selected since it coincides with the time during which rapid expression of E-selectin occurs in the pulmonary vasculature.

Compound	inhibition of adhesion of HL-60 cells to activated endothelial cells [1]	reduction of HL-60 cell adhesion to activated endothelial cells [1]	inhibition of adhesion of HL-60 cells to activated platelets [2]	reduction of permeability value ([3]; P<0.001)	reduction of hemorrhage ([3]; P<0.004)	reduction of MPO content ([3]; P<0.006)	effect on IgG immune complex-induced neutrophil accumulation / lung injury [4]	protection assessed by vascular permeability and hemorrhage ([5]; FIG. 20, 100 μg)	effect on IgA immune complex-induced neutrophil accumulation and pathological sequelae ([5]; conclusion in words)
III^3 V^3 Fuc2 VI^3 NeuAcnLc6 [S-diLe^x]	dramatically inhibited	70%	dramatically inhibited						
CC(=O)N[C@H]1[C@H]([C@H](O)[C@H](O)CO)O[C@@](O[C@H]2[C@@H](O)[C@@H](CO)O[C@@H](O[C@H]3[C@H](O[C@@H]4O[C@@H](C)[C@@H](O)[C@@H](O)[C@@H]4O)[C@@H](NC(C)=O)C(O)O[C@@H]3CO)[C@@H]2O)(C(=O)O)C[C@@H]1O (stereo partly drawn) [SLX-OH, NeuAcα2,3Gal,β1 4(Fucα1,3)GlcNAc-OH]				43%	41%	35%	blocked IgG	did not afford any protection from IgA immune complex induced lung injury	not IgA
III^3 V^3 Fuc2 nLc6 [di-Le^x, reference compound]	minimal inhibition	40%	minimal inhibition						
